Measured values as given in publication PMC9582434, “Ryanodine receptor-active non-dioxin-like polychlorinated biphenyls cause neurobehavioral deficits in larval zebrafish” (Frontiers in Toxicology, 2022).

Key:
larval zebrafish [1] = details: larval zebrafish younger than 7 dpf, static exposure, up to 10 μM; ref Aluru et al., 2020; cited from earlier work
[2] = tested on: RYR paralogs found in zebrafish skeletal muscle; assay: [3H]ryanodine ligand binding assay, adult zebrafish tail muscle microsomes
Method: Sensitization of the zebrafish RYR by ortho-PCBs was measured using [^3H]ryanodine ([^3H]Ry) ligand binding assays as previously described ([Fritsch and Pessah, 2013]). Briefly, crude microsomal protein preparations were created from the tail (post dorsal fin) muscle (primarily white skeletal muscle) of six adult zebrafish (∼1 year old) that was homogenized in a buffer containing 320 mM sucrose, 5 mM HEPES, 1 mM PMSF, 10 mM NaF, 2 mM β-Glycerol, 5 mM Na4P2O7, 0.5 mM Na3VO4 and 2 μg/L leupeptin (pH 7.2). The homogenate was centrifuged at 5,000 × g (4°C) for 15 min. The pellet was re-homogenized in 5 ml homogenization buffer and centrifuged at 5,000 × g. Supernatants were combined for ultracentrifugation at 100,000 g (4°C for 1 h). The resultant pellet was re-suspended in a buffer of 320 mM sucrose and 5 mM HEPES (Sigma-Aldrich, St. Louis, MO, United States) at pH 7.2. Protein concentrations were determined in triplicate using a BCA Assay (Fisher Scientific, Waltham, MA, United States). [^3H]Ry ligand binding assays were conducted with 40 μg/ml of the crude protein homogenate in the presence of DMSO (0.5%) or 0.1–50 μM of individual PCB congeners in 0.5% DMSO. Tests were run using 5 nM [^3H]Ry (Perkin Elmer Waltham, MA, United States), 250 mM KCl, 20 mM HEPES, 15 mM NaCl, and 50 μM CaCl2 (pH 7.1) and incubated for 16 h at 25°C. Non-specific binding was determined with the addition of 10 µM ryanodine (Tocris Bioscience, Bristol, United Kingdom) and 200 μM EGTA (Sigma-Aldrich, St. Louis, MO, United States). Assays were terminated by rapid filtration through Whatman GF/B filter paper (Brandel, Gaithersburg, MD, United States) and washed with ice-cold buffer containing 140 mM KCl, 10 mM HEPES, and 0.1 mM CaCl2, pH 7.4. Bound radioligand was measured by liquid scintillation counting (Beckman Coulter, Indianapolis, IN, United States). PCB-induced [^3H]Ry binding was assessed in two different protein preparations, and each assay was run in triplicate. Individual PCB concentration-response curves were determined using non-linear regression (GraphPad Prism 6.0, GraphPad Software Inc., San Diego, CA, United States).

larval zebrafish [3] = assay: Larval photomotor behavior test (light/dark locomotor test); format: in vivo
Method: At 4 hpf, embryos were treated with 50 µl of 41 mg/ml protease from Streptomyces griseus (P5147, Sigma-Aldrich, St. Louis, MO, United States) in 25 ml of FW for a maximum of 6 min to remove the chorion ([Truong et al., 2011]). At 5 hpf, embryos were placed in individual wells of 96-well plates filled with 100 µl of EM. At 6 hpf, embryos were exposed to a 2× concentration of the selected PCB congeners or controls that were diluted in 100 μl EM to produce a 1× concentration in a total of 200 µl solution. […] After exposure, plates were covered with Parafilm M (Bemis NA, Neenah, WI, United States) to reduce evaporation and placed in an incubator at 28.5°C with 14 h light (∼300 lux)/10 h dark cycles. Final DMSO concentrations were 0.2% (vol/vol) for all exposures. Fish were statically exposed until 5 dpf.
Larval locomotor tests were performed at 3, 4, and 5 dpf. Vehicle and PCB-exposed larvae in 96-well plates were placed in a DanioVision behavior system (Noldus Information Technology, Leesburg, VA, United States) and subjected to a 35 min light/dark locomotor test. System and plate temperature were maintained at 28.5 ± 0.5°C using a temperature control unit from Noldus. The testing paradigm consisted of a 10 min light period (∼1,900 lux) to allow for acclimation (5 min) and to record baseline swimming (5 min). This was followed by a 5 min dark period (∼0 lux) to stimulate increased swimming behavior and a 5 min light period (∼1,900 lux) to stimulate freezing behavior. The last 15 min consisted of a dark period (∼0 lux) to observe increased swimming behavior and acclimation to the dark conditions.
The distance traveled binned per minute by each larva during the 35-min observation test period was recorded via continuous tracing using a DanioVision system camera with an infrared filter to allow recording in both light and dark conditions. Movement was tracked using EthoVisionXT software (Noldus Information Technology) and exported to Excel and Prism 6.0 (GraphPad Software) for analysis and visualization. Dead and/or malformed larvae (as noted by observation under dissecting scope) were excluded from the behavior analysis.
The trapezoidal rule was used to compute the area under the curve (AUC) for each fish per day per lighting condition. The first 5 min of the 35-min observation period was removed to account for initial acclimation. Therefore, data were analyzed for the following time epochs: Light 1 (L1) = 6–10 min, Dark 1 (D1) = 11–15 min, Light 2 (L2) = 16–20 min, and Dark 2 (D2) = 21–35 min. Mixed effects regression models, including zebrafish-specific random effects, were used to assess differences between groups. DMSO groups from each spawn date (≥3 independent spawns) and plate were combined in the analysis. Separate models were fit for each congener. New variables were defined to capture differences in the AUC between Light 1 and Dark 1, Dark 1 and Light 2, and Light 2 and Dark 2, to measure change in distance traveled when transitioning from light to dark or dark to light. Contrasts were specified to compare these transitions and the AUC during each of the lighting conditions between the exposed groups and the DMSO control group. […] Due to some zeroes in the AUC, all values were shifted by 0.1 prior to taking the natural logarithm. Concentration (0.1, 0.3, 1, 3, 10 µM and DMSO), day (3, 4, 5 dpf), and the transition variables were all of interest in the models, including their interactions. Akaike information criterion was used for model selection and Wald tests for comparing groups. All analyses were conducted using SAS version 9.4.
The neurotoxic potential of the congeners tested in this study were ranked based on the three endpoints measured in this study: RYR binding, behavior, and body burden. Congeners were ranked relative to each other for each individual endpoint from 1 (highest) to 6 (lowest), and then the three scores for each congener averaged to obtain an overall relative ranking for each congener. […]

Structure (SMILES): Clc1cc(Cl)c(-c2cc(Cl)c(Cl)cc2Cl)cc1Cl [PCB 153, 2,2',4,4',5,5'-Hexachlorobiphenyl]
- malformations or mortality (larval zebrafish [1]): no malformations or mortality
- EC2X ([2]; concentration causing two-fold induction in ligand binding vs DMSO control): 3.88
- Max. response SEM (%) ([2]; maximum [3H]Ry binding response compared to DMSO control, mean ± SEM): 320.40 ± 92.18%
- EC50 ([2]; relative EC50, concentration causing half-maximum response, PCB 0.1–50 μM): 4.34 µM
- RYR activity (in words) ([2]; zebrafish muscle): moderate
- L1-D1 transition relative to vehicle control (larval zebrafish [3]; 0.3 µM, 4 dpf): attenuating
- distance moved relative to vehicle control (larval zebrafish [3]; 0.3 µM, 4 dpf, L1): moved more
- L1-D1 transition relative to vehicle control (larval zebrafish [3]; 1 µM, 3 dpf): larger
- distance moved relative to vehicle control (larval zebrafish [3]; 1 µM, 3 dpf, D1): moved more
- distance moved relative to vehicle control (larval zebrafish [3]; 1 µM, 3 dpf, D2): moved more
- distance moved relative to vehicle control (larval zebrafish [3]; 1 µM, 3 dpf, L2): moved more
- L1-D1 transition relative to vehicle control (larval zebrafish [3]; 10 µM, 3 dpf): larger
- distance moved relative to vehicle control (larval zebrafish [3]; 10 µM, 3 dpf, D1): moved more
- distance moved relative to vehicle control (larval zebrafish [3]; 10 µM, 3 dpf, D2): moved more
- distance moved relative to vehicle control (larval zebrafish [3]; 10 µM, 3 dpf, L2): moved more
- distance moved relative to vehicle control (larval zebrafish [3]; 10 µM, 4 dpf, L2): moved more
- L1-D1 transition relative to vehicle control (larval zebrafish [3]; 10 µM, 5 dpf): attenuated
- distance moved relative to vehicle control (larval zebrafish [3]; 10 µM, 5 dpf, L1): moved more
- distance moved relative to vehicle control (larval zebrafish [3]; 10 µM, 5 dpf, L2): more movement
- Behavior score (total change from control) (larval zebrafish [3]; sum of absolute [1 − (AUC value/DMSO)] over all concentrations, epochs and 3, 4, 5 dpf): 23.05
